Measured values from PubChem BioAssay AID2060894 (Molecular Pharmacology Branch, DTP, NCI, 2025).

Test system: K12877-001-R-J1-PDC complex spheroid viability
Test: Anticancer human tumor K12877-001-R-J1-PDC patient-derived lung adenocarcinoma cell line growth inhibition [RAS]
Conditions: for IC50: curve of first compound; for viability, T/C: stronger effect = lower value; active = viability on the fitted dose curve at most 10% of control; inactive = the rest
Source text: RAS pathway inhibitors in Combinations in Complex Spheroids
A high-throughput screen of multi-cell type tumor spheroids was designed to identify active combinations of RAS pathway inhibitors and targeted small molecules. Complex spheroids include a stromal component modeled by human endothelial cells (HUVEC) and fibroblasts modeled by human mesenchymal stem cells (MSCs). The concentration ranges selected for each drug and investigational agent were based upon clinically achievable concentrations if the clinical Cmax of the agent was known.
Compounds. The drugs and investigational agents: abemaciclib (NSC768073), cobimetinib (NSC768068), divarasib (GDC6063, NSC841802), docetaxel (NSC628503), GDC-1971 (RLY-1971, NSC841576), gemcitabine (NSC613327), inavolisib (NSC800729), ipatasertib (NSC767898), KB-0742 (NSC834161), MRTX-1133 (NSC836407), osimertinib (NSC779217), RMC-4630 (NSC839698), RMC-6236 (NSC851965), RMC-6291 (NSC852671), Ro-3306 (NSC812927), sapanisertib (NSC764658), SN-38 (NSC673596), staurosporine (NSC755774), SY5609 (NSC837396), and tovorafenib (DAY101, NSC766906), were obtained from the National Cancer Institute (NCI) Developmental Therapeutics Program Chemical Repository. The FDA-approved anticancer drug set is available from the NCI Developmental Therapeutics Program. […] The stock solutions were prepared in dimethyl sulfoxide (DMSO, Sigma-Aldrich, St. Louis, MO, cat. D2650) at 800-fold the tested concentration and stored at -70 degrees C prior to their use. All drugs and investigational agents were tested over a range starting from a high concentration at or near the clinical Cmax and decreasing in half-log increments. If the clinical Cmax for an agent had not been determined, the highest concentration tested was 10 microM.
Cell Culture. All cells were maintained in an incubator at 37 degrees C and 5% CO2 with 95% humidity. The PDC lines were cultured according to standard operating procedures established by the NCI PDMR. All PDCs were thawed and cultured in Matrigel-coated flasks prepared with a working solution of 1X Ham's F-12 nutrient mix, without supplementation (Invitrogen, Waltham, MA, cat. 11765054), 100 U/mL penicillin-streptomycin (Invitrogen, cat. 15140122), and 2.5% Matrigel (Corning Inc., Corning, NY, cat. 354248) for the first three passages. The 362531-283-R-J2-PDC and 782815-120-R-J1-PDC lines were cultured in 6C/Colon 1B media, which includes advanced DMEM/F-12 (Thermo Fisher Scientific, cat. 12634028), 10 mM HEPES (Thermo Fisher Scientific, cat. 15630080), 1X GlutaMAX supplement (Thermo Fisher Scientific, cat. 35050061), 0.1 mg/mL primocin (InvivoGen, San Diego, CA, cat. ant-pm-2), 10% defined fetal bovine serum, heat inactivated (HyClone Laboratories Inc., Logan, UT, cat. SH30070.03HI), 50% L-WRN conditioned media (ATCC, cat. CRL-3276), 1.25 mM N-Acetyl-L-cysteine (Sigma-Aldrich, cat. A9165), 10 mM nicotinamide (Sigma-Aldrich, cat. N0636), 1X B-27 supplement (Thermo Fisher Scientific, cat. 17504044), 1X N-2 supplement (Thermo Fisher Scientific, cat. 17502048), 50 ng/mL human EGF (Thermo Fisher Scientific, cat. PHG0311), and 10 microM Y-27632 dihydrochloride (Tocris Bioscience, cat. 1254). The K12877-001-R-J1-PDC line was cultured in 6I media, which includes all 6C/Colon 1B media plus 10 ng/mL human FGF-10 (PeproTech, cat. 100-26), 1 ng/mL human FGF-2 (PeproTech, cat. 100-18B), 1 µM prostaglandin E2 (Tocris Bioscience, cat. 2296), […] hydrocortisone (Sigma-Aldrich, cat. H4001), and […] bovine insulin (Sigma-Aldrich, cat. I6634). The K86415-001-R-J1-PDC line was cultured in 6D media, which includes all 6C/Colon 1B media components minus the L-WRN conditioned media. The 485176-168-R4-J1-PDC was cultured in PANC media, which includes all 6C/Colon 1B media plus 100 ng/mL human FGF-10 (PeproTech, cat. 100-26), 500 nM SB-431542 (Selleckchem, cat. S1067), and 10 nM gastrin (Tocris Bioscience, cat. 3006). […]

[1] = second compound 0.0316 µM, first compound 0.0316 µM
[2] = second compound 0.0316 µM, first compound 0.1 µM
[3] = second compound 0.0316 µM, first compound 0.316 µM
[4] = second compound 0.0316 µM, first compound 1 µM
[5] = second compound 0.0316 µM, first compound 3.16 µM
[6] = second compound 0.0316 µM, first compound 10 µM
[7] = second compound 0.1 µM, first compound 0.0316 µM
[8] = second compound 0.1 µM, first compound 0.1 µM
[9] = second compound 0.1 µM, first compound 0.316 µM
[10] = second compound 0.1 µM, first compound 1 µM
[11] = second compound 0.1 µM, first compound 3.16 µM
[12] = second compound 0.1 µM, first compound 10 µM
[13] = second compound 0.316 µM, first compound 0.0316 µM
[14] = second compound 0.316 µM, first compound 0.1 µM
[15] = second compound 0.316 µM, first compound 0.316 µM
[16] = second compound 0.316 µM, first compound 1 µM
[17] = second compound 0.316 µM, first compound 3.16 µM
[18] = second compound 0.316 µM, first compound 10 µM
[19] = second compound 1 µM, first compound 0.0316 µM
[20] = second compound 1 µM, first compound 0.1 µM
[21] = second compound 1 µM, first compound 0.316 µM
[22] = second compound 1 µM, first compound 1 µM
[23] = second compound 1 µM, first compound 3.16 µM
[24] = second compound 1 µM, first compound 10 µM
[25] = second compound 3.16 µM, first compound 0.0316 µM
[26] = second compound 3.16 µM, first compound 0.1 µM
[27] = second compound 3.16 µM, first compound 0.316 µM
[28] = second compound 3.16 µM, first compound 1 µM
[29] = second compound 3.16 µM, first compound 3.16 µM
[30] = second compound 3.16 µM, first compound 10 µM
[31] = second compound 10 µM, first compound 0.0316 µM
[32] = second compound 10 µM, first compound 0.1 µM
[33] = second compound 10 µM, first compound 0.316 µM
[34] = second compound 10 µM, first compound 1 µM
[35] = second compound 10 µM, first compound 3.16 µM
[36] = second compound 10 µM, first compound 10 µM
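Note: spheroids exposed to agents for one week before readout.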

Cc1nc(N2CCC3(CC2)COC(C)C3N)c(CO)nc1Sc1ccnc(N)c1Cl (stereo unspecified) + C#Cc1c(F)ccc2cc(O)cc(-c3ncc4c(N5CC6CCC(C5)N6)nc(OCC56CCCN5CC(F)C6)nc4c3F)c12
> 10 µM: IC50 (second compound 0.0316 µM) | IC50 (second compound 0.1 µM) | IC50 (second compound 0.316 µM) | IC50 (second compound 1 µM) | IC50 (second compound 3.16 µM) | IC50 (second compound 10 µM)
inactive: viability, T/C [1] 94.3% | viability, T/C [2] 97% | viability, T/C [3] 99% | viability, T/C [4] 95.1% | viability, T/C [5] 103% | viability, T/C [6] 77.5% | viability, T/C [7] 109% | viability, T/C [8] 110% | viability, T/C [9] 92% | viability, T/C [10] 87.7% | viability, T/C [11] 93.5% | viability, T/C [12] 84.1% | viability, T/C [13] 107% | viability, T/C [14] 98.8% | viability, T/C [15] 91.2% | viability, T/C [16] 92.9% | viability, T/C [17] 78.5% | viability, T/C [18] 65.7% | viability, T/C [19] 101% | viability, T/C [20] 92.5% | viability, T/C [21] 93.1% | viability, T/C [22] 95.7% | viability, T/C [23] 82.9% | viability, T/C [24] 69.5% | viability, T/C [25] 100% | viability, T/C [26] 94% | viability, T/C [27] 92.4% | viability, T/C [28] 79.7% | viability, T/C [29] 79.7% | viability, T/C [30] 69.7% | viability, T/C [31] 93.6% | viability, T/C [32] 86.1% | viability, T/C [33] 83.9% | viability, T/C [34] 83.4% | viability, T/C [35] 86.9% | viability, T/C [36] 84.8%

NC1c2ccccc2OC12CCN(c1cnc3c(N4CCCc5ncccc54)n[nH]c3n1)CC2 (stereo unspecified) + C#Cc1c(F)ccc2cc(O)cc(-c3ncc4c(N5CC6CCC(C5)N6)nc(OCC56CCCN5CC(F)C6)nc4c3F)c12
> 10 µM: IC50 (second compound 0.0316 µM) | IC50 (second compound 0.1 µM) | IC50 (second compound 0.316 µM) | IC50 (second compound 1 µM) | IC50 (second compound 3.16 µM) | IC50 (second compound 10 µM)
inactive: viability, T/C [1] 104% | viability, T/C [2] 92.3% | viability, T/C [3] 86.8% | viability, T/C [4] 93.1% | viability, T/C [5] 85.3% | viability, T/C [6] 50.4% | viability, T/C [7] 106% | viability, T/C [8] 91.1% | viability, T/C [9] 90% | viability, T/C [10] 78.9% | viability, T/C [11] 84.2% | viability, T/C [12] 58.9% | viability, T/C [13] 98.4% | viability, T/C [14] 93.2% | viability, T/C [15] 88.5% | viability, T/C [16] 86.8% | viability, T/C [17] 74.2% | viability, T/C [18] 55.8% | viability, T/C [19] 105% | viability, T/C [20] 97.1% | viability, T/C [21] 86.8% | viability, T/C [22] 87.6% | viability, T/C [23] 71.2% | viability, T/C [24] 54.8% | viability, T/C [25] 99.7% | viability, T/C [26] 84.8% | viability, T/C [27] 104% | viability, T/C [28] 87.8% | viability, T/C [29] 72.7% | viability, T/C [30] 55.1% | viability, T/C [31] 90.4% | viability, T/C [32] 97.6% | viability, T/C [33] 102% | viability, T/C [34] 91.8% | viability, T/C [35] 64.9% | viability, T/C [36] 63.8%

Nc1ccn(C2OC(CO)C(O)C2(F)F)c(=O)n1 (stereo unspecified) + C#Cc1c(F)ccc2cc(O)cc(-c3ncc4c(N5CC6CCC(C5)N6)nc(OCC56CCCN5CC(F)C6)nc4c3F)c12
active: viability, T/C [1] 7.92% | viability, T/C [2] 5.24% | viability, T/C [3] 5.93% | viability, T/C [4] 6.36% | viability, T/C [7] 7.72% | viability, T/C [8] 5.87% | viability, T/C [9] 5.86% | viability, T/C [10] 5.63% | viability, T/C [13] 7.04% | viability, T/C [14] 5.27% | viability, T/C [15] 5.95% | viability, T/C [16] 6.35% | viability, T/C [19] 9.52% | viability, T/C [20] 5.65% | viability, T/C [21] 6.02% | viability, T/C [22] 6.24% | viability, T/C [25] 8.02% | viability, T/C [26] 4.94% | viability, T/C [27] 5.19% | viability, T/C [28] 5.82% | viability, T/C [31] 8.95% | viability, T/C [32] 5.43% | viability, T/C [33] 6.72% | viability, T/C [34] 5.24%
0.0174 µM: IC50 (second compound 3.16 µM)
0.017 µM: IC50 (second compound 0.1 µM)
0.0178 µM: IC50 (second compound 0.316 µM)
0.0187 µM: IC50 (second compound 0.0316 µM)
0.0176 µM: IC50 (second compound 1 µM)
0.0162 µM: IC50 (second compound 10 µM)
inactive: viability, T/C (second compound 0.0316 µM, first compound 0.00316 µM) 98.9% | viability, T/C (second compound 0.0316 µM, first compound 0.01 µM) 102% | viability, T/C (second compound 0.1 µM, first compound 0.00316 µM) 119% | viability, T/C (second compound 0.1 µM, first compound 0.01 µM) 85.9% | viability, T/C (second compound 0.316 µM, first compound 0.00316 µM) 102% | viability, T/C (second compound 0.316 µM, first compound 0.01 µM) 92.7% | viability, T/C (second compound 1 µM, first compound 0.00316 µM) 102% | viability, T/C (second compound 1 µM, first compound 0.01 µM) 88.8% | viability, T/C (second compound 3.16 µM, first compound 0.00316 µM) 106% | viability, T/C (second compound 3.16 µM, first compound 0.01 µM) 89% | viability, T/C (second compound 10 µM, first compound 0.00316 µM) 101% | viability, T/C (second compound 10 µM, first compound 0.01 µM) 79.4%
